Assay results from patent US20180333382A1, “PHARMACEUTICAL COMPOSITIONS COMPRISING DGLA AND USE OF SAME” (DS Biopharma Limited, priority 2017, published 2018).
Read-outs that look alike come from different tables or passages of the source.

Experiments:
[1] = Phase II study: safety (adverse events); format: in vivo, human; settings: oral, 2 g once daily for 8 weeks
Excerpt: Subjects visited the clinic on 6 occasions: at screening, baseline, week 2, week 4, week 8 (end of treatment/early termination) and week 10 (follow-up). All subjects exited the study at the week 10 visit. The primary efficacy variable was the proportion of patients achieving an IGA of 0 (clear) or 1 (almost clear), and a decrease of at least 2 points in IGA at week 8. Secondary efficacy variables included: IGA at other visits, pruritus (obtained from the SCORAD visual analog scale), EASI, BSA, POEM, DLQI, SCORAD and TEWL (for selected sites only). Safety was assessed through adverse events, physical examination, vital signs and safety laboratory tests (including pregnancy tests for women of childbearing potential). Pharmacokinetic samples were obtained at Baseline (Day 0), week 4 and week 8 visits in order to measure total and free DGLA plasma trough levels. Separate plasma samples were retained for later analysis of total fatty acid profile and interleukin profile.
Laboratory tests were performed at screening, Day 0, Week 4 and Week 8. If Week 8 results indicated a clinically significant change from baseline, laboratory tests were also performed at Week 10. […]
Efficacy was evaluated on the basis of the ITT population and analyses were performed based on the randomized treatment and not on the treatment received. […]

eosinophil = test: Phase II study: eosinophil concentrations by ethnicity and responder status; format: in vivo, human
Method: Laboratory tests were performed at screening, Day 0, Week 4 and Week 8. If Week 8 results indicated a clinically significant change from baseline, laboratory tests were also performed at Week 10. The tests included urinalysis, hematology with differential and coagulation testing, a standard chemistry panel (chemistry includes liver function tests and cholesterol), coagulation, serum pregnancy test (screening and week 8 early termination visits) for women of childbearing potential (WOCBP). At baseline (Day 0), week 2, week 4 and week 10 visits, a urine pregnancy test was performed for women of childbearing potential (conducted at the investigator site).
Eosinophils are a type of white blood cell that play an important role in the body's response to allergic reactions, asthma, and infection with parasites. Eosinophils usually account for less than 7% of the circulating white blood cells (100 to 500 eosinophils per microliter of blood). These cells have a role in the protective immunity against certain parasites but also contribute to the inflammation that occurs in allergic disorders.
FIG. 30A-B. In particular, 56% of DS107-treated African America patients were classified as Responders, versus only 7% of Caucasian patients. […]

[2] = Phase one study: effect of food on single 1000 mg dose PK (fasted vs fed); format: in vivo, human; settings: for AUC0-24, mean, free DGLA, baseline-corrected plasma / AUC0-24/Dose, mean, free DGLA, baseline-corrected plasma / AUC0-24/Dose, mean, total DGLA, baseline-corrected plasma / AUC0-inf, mean, free DGLA, baseline-corrected plasma / AUC0-inf/Dose, mean, free DGLA, baseline-corrected plasma / CL/F, mean, free DGLA, baseline-corrected plasma / Cmax, mean, free DGLA, baseline-corrected plasma / Cmax/Dose, mean, free DGLA, baseline-corrected plasma / Cmax/Dose, mean, total DGLA, baseline-corrected plasma / λz, mean, free DGLA, baseline-corrected plasma / λz, mean, total DGLA, baseline-corrected plasma / half-life / Tmax: 1000 mg single dose; for mean baseline-corrected AUC0-24, total DGLA vs free DGLA / mean baseline-corrected Cmax, total DGLA vs free DGLA / half-life / Tmax: 1000 mg; for half-life / Tmax: human, plasma, oral; for half-life: read-out: t1/2, median, free DGLA, baseline-corrected plasma (converted); for Tmax: read-out: tmax, median, free DGLA, baseline-corrected plasma
Method: Subjects were randomly assigned in a 3:1 ratio of DG107G to placebo by block randomization. Single dose part one of the study comprised three cohorts of eight subjects each, with the addition of Cohort four based on evaluation of the safety data of Cohort three by the Safety Monitoring Committee (SMC). A single oral dose of DS107G or matching placebo was administered to fasted subjects in Cohorts one to three (500, 1000, and 2000 mg, respectively) in parallel; subjects in Cohort four were administered a dose of 4000 mg following completion of Cohort three. Subjects in Cohort two received 1000 mg or matching placebo in the fed state at 14 days after the first dose.
Food effect was evaluated in Cohort two at least 14 days after the first dose at which time a second single dose was administered. Subjects were administered a 1000-mg dose of study drug with 240 mL of water after a 10-hour fasting period and 30 minutes after starting consumption of a meal. Subjects then refrained from food intake for at least 4 hours after dosing. Food consumption was standardized for at least 12 hours after dosing using a standardized high-fat meal (800 to 1000 kcal with 500 to 600 kcal from fat and 250 kcal from carbohydrates). A typical standard test meal consisted of two eggs fried in butter, two strips of bacon, two slices of toast with butter, 120 mL of hash brown potatoes, and 240 mL of whole milk.
Subjects in Cohort two undergoing evaluation of the food effect on oral 1000 mg DGLA capsules were restricted from food consumption for at least 4 hours after dosing. Food consumption was standardized for at least 12 hours post dose using a standardized high-fat meal.

[3] = Phase one study: safety and tolerability (TEAEs, vital signs, ECG); settings: for tolerability: healthy volunteers
Method: Screening procedures were conducted for both parts one and two before the start of the study on Day −1 (Baseline) by evaluating the safety assessments.
Subjects were monitored throughout their confinement at the Phase 1 unit for adverse reactions to the study drug and/or procedures.
Safety analyses were performed on the safety population tabulated by treatment arm, cohort, and visit. All safety data were characterized by descriptive statistical tools. […] Evaluation of safety assessments was performed in a descriptive manner. Continuous variables were characterized by their mean, standard deviation (SD), median, minimum and maximum values; discrete variables were characterized by their absolute (frequency) and relative (percentage) distribution.

Question: With `CCCCC/C=C\C/C=C\C/C=C\CCCCCCC(=O)O` [DS107G, Dihomo gamma linolenic acid] as the compound, how does the “drug related Serious Adverse Events” value [1] read?
Answer: no drug related Serious Adverse Events

Question: What about the tolerability [1] of the same compound?
Answer: very well tolerated

Question: And the eosinophil concentrations (eosinophil; African American vs Caucasian patients, each time point measured)?
Answer: statistically significant reductions

Question: And the eosinophil concentration (eosinophil; treated Responders vs Non-responders, all time points)?
Answer: statistically significant decrease

Question: What about the “AUC0-24, mean, free DGLA, baseline-corrected plasma” value ([2]; fasted) of the same compound?
Answer: 3998.5 ng·h/mL

Question: And the “AUC0-24/Dose, mean, free DGLA, baseline-corrected plasma” value ([2]; fasted)?
Answer: 4.00 h/kL

Question: What about the “AUC0-24/Dose, mean, total DGLA, baseline-corrected plasma” value ([2]; fasted) of the same compound?
Answer: 215.37 h/kL

Question: And the “AUC0-inf, mean, free DGLA, baseline-corrected plasma” value ([2]; fasted)?
Answer: 218955.6 ng·h/mL

Question: What about the “AUC0-inf/Dose, mean, free DGLA, baseline-corrected plasma” value ([2]; fasted) of the same compound?
Answer: 218.96 h/kL

Question: What about the “CL/F, mean, free DGLA, baseline-corrected plasma” value ([2]; fasted) of the same compound?
Answer: 0.1866 kL/h

Question: And the “Cmax, mean, free DGLA, baseline-corrected plasma” value ([2]; fasted)?
Answer: 1602.8 ng/mL

Question: And the “Cmax/Dose, mean, free DGLA, baseline-corrected plasma” value ([2]; fasted)?
Answer: 1.603 kL⁻¹

Question: And the “Cmax/Dose, mean, total DGLA, baseline-corrected plasma” value ([2]; fasted)?
Answer: 15.750 kL⁻¹

Question: What about the “λz, mean, free DGLA, baseline-corrected plasma” value ([2]; fasted) of the same compound?
Answer: 0.0487 h⁻¹

Question: And the “λz, mean, total DGLA, baseline-corrected plasma” value ([2]; fasted)?
Answer: 0.0136 h⁻¹

Question: And the “AUC0-24, mean, free DGLA, baseline-corrected plasma” value ([2]; fed)?
Answer: 2102.7 ng·h/mL

Question: And the “AUC0-24/Dose, mean, free DGLA, baseline-corrected plasma” value ([2]; fed)?
Answer: 2.10 h/kL

Question: And the “AUC0-24/Dose, mean, total DGLA, baseline-corrected plasma” value ([2]; fed)?
Answer: 117.39 h/kL

Question: What about the “AUC0-inf, mean, free DGLA, baseline-corrected plasma” value ([2]; fed) of the same compound?
Answer: 29150.8 ng·h/mL

Question: What about the “AUC0-inf/Dose, mean, free DGLA, baseline-corrected plasma” value ([2]; fed) of the same compound?
Answer: 29.15 h/kL

Question: And the “CL/F, mean, free DGLA, baseline-corrected plasma” value ([2]; fed)?
Answer: 0.1658 kL/h

Question: What about the “Cmax, mean, free DGLA, baseline-corrected plasma” value ([2]; fed) of the same compound?
Answer: 520.2 ng/mL

Question: What about the “Cmax/Dose, mean, free DGLA, baseline-corrected plasma” value ([2]; fed) of the same compound?
Answer: 0.520 kL⁻¹

Question: What about the “Cmax/Dose, mean, total DGLA, baseline-corrected plasma” value ([2]; fed) of the same compound?
Answer: 10.317 kL⁻¹

Question: And the “λz, mean, free DGLA, baseline-corrected plasma” value ([2]; fed)?
Answer: 0.0403 h⁻¹

Question: What about the “λz, mean, total DGLA, baseline-corrected plasma” value ([2]; fed) of the same compound?
Answer: 0.0805 h⁻¹

Question: And the “mean baseline-corrected AUC0-24, total DGLA vs free DGLA” value ([2]; fasted)?
Answer: ~54 fold

Question: And the “mean baseline-corrected Cmax, total DGLA vs free DGLA” value ([2]; fasted)?
Answer: ~10 fold

Question: And the “mean baseline-corrected AUC0-24, total DGLA vs free DGLA” value ([2]; fed)?
Answer: ~56 fold

Question: And the “mean baseline-corrected Cmax, total DGLA vs free DGLA” value ([2]; fed)?
Answer: ~20 fold

Question: And the half-life ([2]; fasted)?
Answer: 28.3 h

Question: And the Tmax ([2]; fasted)?
Answer: 4 h

Question: And the half-life ([2]; fed)?
Answer: 141 h

Question: What about the Tmax ([2]; fed) of the same compound?
Answer: 5 h

Question: And the “free DGLA Cmax occurred sooner under fasted than fed conditions (median)” value ([2]; single 1000-mg dose)?
Answer: 1 h

Question: And the “higher rate and extent of total DGLA absorption under fasted conditions (mean Cmax and AUC0-24)” value ([2]; single 1000-mg dose)?
Answer: approximately 50%

Question: And the “mean baseline-corrected free DGLA Cmax, fasted vs fed” value ([2]; single 1000-mg dose)?
Answer: about 3 fold

Question: What about the “mean free DGLA baseline-corrected AUC0-24, fasted vs fed” value ([2]; single 1000-mg dose) of the same compound?
Answer: about 2 fold

Question: What about the “total DGLA mean baseline-corrected AUC0-24, fasted vs fed” value ([2]; single 1000-mg dose) of the same compound?
Answer: about 1.8 fold

Question: And the “total DGLA mean baseline-corrected Cmax, fasted vs fed” value ([2]; single 1000-mg dose)?
Answer: about 1.5 fold

Question: What about the “total DGLA tmax occurred sooner under fasted than fed conditions” value ([2]; single 1000-mg dose) of the same compound?
Answer: about 50%

Question: And the tolerability ([3]; 2000- or 4000-mg once daily for 28 consecutive days)?
Answer: tolerated well

Question: And the subjects reporting diarrhea ([3]; 2000-mg group, 3/6)?
Answer: 50%

Question: What about the subjects reporting diarrhea ([3]; 4000-mg group, 4/6) of the same compound?
Answer: 66.7%

Question: And the subjects reporting nausea ([3]; 4000-mg treatment group, 4/6, 10 events)?
Answer: 66.7%

Question: What about the deaths ([3]; multi-dose study) of the same compound?
Answer: no deaths

Question: What about the “severe TEAEs” value ([3]; multiple dose) of the same compound?
Answer: no severe TEAEs

Question: And the “incidence of TEAEs” value ([3]; multiple dose, 11/12 active-treated subjects, total of 52 TEAEs)?
Answer: 91.73%

Question: And the tolerability ([3]; single dose 500, 1000, 2000 or 4000 mg)?
Answer: well tolerated

Question: And the “incidence of diarrhea (loose stool)” value ([3]; single dose, 5/24 active-treated subjects)?
Answer: 20.8%
